From the supplement of paper PMC11451515

Test system: SEM cells
Assay: cell viability relative to DMSO control; higher = less cytotoxic
Conditions: 48 h
Method in brief: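 Viability is expressed as a percentage of DMSO wells within each plate, and cell-free wells serve as background. Seeding densities in the 1536-well plates (5 μl) were 500 cells/well for NOMO1 or SEM leukemia cells and 1000 cells/well for P12-Ichikawa. Each line was adapted for at least four passages in each medium. Library compounds in DMSO were pin-dosed at 47 μM to 0.79 nM (11 points, threefold), and CellTiter-Glo One luminescence was read after 48 h at 37°C.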

[1] = HPLM + 10% dialyzed FBS, 0.000781 µM
[2] = HPLM + 10% dialyzed FBS, 0.00234 µM
[3] = HPLM + 10% dialyzed FBS, 0.00702 µM
[4] = HPLM + 10% dialyzed FBS, 0.0211 µM
[5] = HPLM + 10% dialyzed FBS, 0.0632 µM
[6] = HPLM + 10% dialyzed FBS, 0.19 µM
[7] = HPLM + 10% dialyzed FBS, 0.569 µM
[8] = HPLM + 10% dialyzed FBS, 1.71 µM
[9] = HPLM + 10% dialyzed FBS, 5.12 µM
[10] = HPLM + 10% dialyzed FBS, 15.4 µM
[11] = HPLM + 10% dialyzed FBS, 46.1 µM
[12] = RPMI 5 mM glucose + 10% FBS, 0.000781 µM
[13] = RPMI 5 mM glucose + 10% FBS, 0.00234 µM
[14] = RPMI 5 mM glucose + 10% FBS, 0.00702 µM
[15] = RPMI 5 mM glucose + 10% FBS, 0.0211 µM
[16] = RPMI 5 mM glucose + 10% FBS, 0.0632 µM
[17] = RPMI 5 mM glucose + 10% FBS, 0.19 µM
[18] = RPMI 5 mM glucose + 10% FBS, 0.569 µM
[19] = RPMI 5 mM glucose + 10% FBS, 1.71 µM
[20] = RPMI 5 mM glucose + 10% FBS, 5.12 µM
[21] = RPMI 5 mM glucose + 10% FBS, 15.4 µM
[22] = RPMI 5 mM glucose + 10% FBS, 46.1 µM
[23] = RPMI 5 mM glucose + 10% dialyzed FBS, 0.000781 µM
[24] = RPMI 5 mM glucose + 10% dialyzed FBS, 0.00234 µM
[25] = RPMI 5 mM glucose + 10% dialyzed FBS, 0.00702 µM
[26] = RPMI 5 mM glucose + 10% dialyzed FBS, 0.0211 µM
[27] = RPMI 5 mM glucose + 10% dialyzed FBS, 0.0632 µM
[28] = RPMI 5 mM glucose + 10% dialyzed FBS, 0.19 µM
[29] = RPMI 5 mM glucose + 10% dialyzed FBS, 0.569 µM
[30] = RPMI 5 mM glucose + 10% dialyzed FBS, 1.71 µM
[31] = RPMI 5 mM glucose + 10% dialyzed FBS, 5.12 µM
[32] = RPMI 5 mM glucose + 10% dialyzed FBS, 15.4 µM
[33] = RPMI 5 mM glucose + 10% dialyzed FBS, 46.1 µM

| Compound | cell viability [1] [%] | cell viability [2] [%] | cell viability [3] [%] | cell viability [4] [%] | cell viability [5] [%] | cell viability [6] [%] | cell viability [7] [%] | cell viability [8] [%] | cell viability [9] [%] | cell viability [10] [%] | cell viability [11] [%] | cell viability [12] [%] | cell viability [13] [%] | cell viability [14] [%] | cell viability [15] [%] | cell viability [16] [%] | cell viability [17] [%] | cell viability [18] [%] | cell viability [19] [%] | cell viability [20] [%] | cell viability [21] [%] | cell viability [22] [%] | cell viability [23] [%] | cell viability [24] [%] | cell viability [25] [%] | cell viability [26] [%] | cell viability [27] [%] | cell viability [28] [%] | cell viability [29] [%] | cell viability [30] [%] | cell viability [31] [%] | cell viability [32] [%] | cell viability [33] [%] |
| --- | --- | --- | --- | --- | --- | --- | --- | --- | --- | --- | --- | --- | --- | --- | --- | --- | --- | --- | --- | --- | --- | --- | --- | --- | --- | --- | --- | --- | --- | --- | --- | --- | --- |
| CC(C)n1nc(-c2ccc3oc(N)nc3c2)c2c(N)ncnc21 | 87.7 | 73.7 | 63.3 | 56.4 | 44.5 | 38.5 | 31.8 | 29.9 | 23.7 | 18.6 | 3.79 | 106 | 101 | 70.3 | 62.4 | 59.3 | 42.4 | 38.3 | 29.1 | 25.1 | 4.15 | 3.72 | 78.2 | 78.8 | 70.9 | 54.8 | 52.6 | 44 | 39.7 | 36.1 | 28.6 | 15.8 | 4.72 |
| CC(=O)CC(C1=CC=CC=C1)C/2=C(O)/C3=CC=CC=C3OC2=O (stereo not drawn) | 80.7 | 101 | 114 | 71.7 | 119 | 114 | 103 | 110 | 116 | 113 | 120 | 110 | 104 | 105 | 73.1 | 105 | 105 | 115 | 118 | 115 | 125 | 137 | 84.4 | 103 | 114 | 73.4 | 111 | 123 | 119 | 125 | 128 | 126 | 123 |
| CCN(CC)C(=S)SSC(=S)N(CC)CC | 99.8 | 99.4 | 115 | 108 | 102 | 85.6 | 55.2 | 40.4 | 4.49 | 3.73 | 2.19 | 74.9 | 74.3 | 78.7 | 79.2 | 73.5 | 55.6 | 48.6 | 32.9 | 2.66 | 1.26 | 0.625 | 87.8 | 97.9 | 97.2 | 103 | 99.3 | 76.6 | 44.3 | 33.5 | 3.67 | 2.09 | 1.26 |
| C[C@@H](O)[C@@H]1[C@H]2[C@@H](C)\C(=C(/N2C1=O)C(=O)OCOC(=O)C(C)(C)C)SC3CN(C3)/C4=N/CCS4 | 74.8 | 95.7 | 99.2 | 112 | 117 | 102 | 101 | 108 | 107 | 97.2 | 82.1 | 88.7 | 114 | 119 | 117 | 101 | 116 | 111 | 125 | 117 | 109 | 72.8 | 82.5 | 109 | 120 | 113 | 122 | 138 | 106 | 113 | 121 | 121 | 85.9 |
| COc1cc(C(C)=O)ccc1OCCCN1CCC(c2noc3cc(F)ccc23)CC1 | 110 | 112 | 118 | 95 | 99.3 | 124 | 123 | 123 | 122 | 128 | 88.7 | – | – | – | – | – | – | – | – | – | – | – | 113 | 121 | 137 | 135 | 115 | 142 | 160 | 135 | 158 | 138 | 106 |
| O=C(/C=C/c1cccc([S+](=O)([O-])Nc2ccccc2)c1)NO | 113 | 119 | 122 | 129 | 124 | 75.6 | 58.4 | 26.4 | 12.2 | 8.53 | 8.48 | 106 | 150 | 124 | 120 | 118 | 81.1 | 53 | 26.7 | 10.6 | 8.84 | 8.83 | 95.9 | 123 | 120 | 113 | 128 | 83.6 | 52 | 20.9 | 9.84 | 8.65 | 8.77 |
| CCC1(c2ccc(N)cc2)CCC(=O)NC1=O (stereo not drawn) | 114 | 113 | 127 | 114 | 118 | 114 | 107 | 55.3 | 108 | 95.1 | 96.6 | – | – | – | – | – | – | – | – | – | – | – | – | – | – | – | – | – | – | – | – | – | – |
